Laboratory results: PubChem BioAssay AID2060603 (Molecular Pharmacology Branch, DTP, NCI, 2025)

Test system: 422866-222-R5-J1-PDC spheroid viability
Assay: Anticancer human tumor 422866-222-R5-J1-PDC patient-derived pancreatic adenocarcinoma cell line growth inhibition [CLK]
Settings: spheroids with HUVEC and MSC; for viability, T/C: stronger effect = lower value; active = viability on the fitted dose curve at most 10% of control; inactive = the rest
Summary of the method: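 Multi-cell-type spheroids combined patient-derived tumor cells with HUVEC endothelial cells and human mesenchymal stem cells. Paired agents were dosed in half-log steps down from about clinical Cmax, or from 10 microM where Cmax was unknown.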

[1] = curve of first compound, second compound 0.0316 µM
[2] = curve of first compound, second compound 0.1 µM
[3] = curve of first compound, second compound 0.316 µM
[4] = curve of first compound, second compound 1 µM
[5] = curve of first compound, second compound 3.16 µM
[6] = curve of first compound, second compound 10 µM
[7] = second compound 0.0316 µM, first compound 0.0316 µM
[8] = second compound 0.0316 µM, first compound 0.1 µM
[9] = second compound 0.0316 µM, first compound 0.316 µM
[10] = second compound 0.0316 µM, first compound 1 µM
[11] = second compound 0.0316 µM, first compound 3.16 µM
[12] = second compound 0.0316 µM, first compound 10 µM
[13] = second compound 0.1 µM, first compound 0.0316 µM
[14] = second compound 0.1 µM, first compound 0.1 µM
[15] = second compound 0.1 µM, first compound 0.316 µM
[16] = second compound 0.1 µM, first compound 1 µM
[17] = second compound 0.1 µM, first compound 3.16 µM
[18] = second compound 0.1 µM, first compound 10 µM
[19] = second compound 0.316 µM, first compound 0.0316 µM
[20] = second compound 0.316 µM, first compound 0.1 µM
[21] = second compound 0.316 µM, first compound 0.316 µM
[22] = second compound 0.316 µM, first compound 1 µM
[23] = second compound 0.316 µM, first compound 3.16 µM
[24] = second compound 0.316 µM, first compound 10 µM
[25] = second compound 1 µM, first compound 0.0316 µM
[26] = second compound 1 µM, first compound 0.1 µM
[27] = second compound 1 µM, first compound 0.316 µM
[28] = second compound 1 µM, first compound 1 µM
[29] = second compound 1 µM, first compound 3.16 µM
[30] = second compound 1 µM, first compound 10 µM
[31] = second compound 3.16 µM, first compound 0.0316 µM
[32] = second compound 3.16 µM, first compound 0.1 µM
[33] = second compound 3.16 µM, first compound 0.316 µM
[34] = second compound 3.16 µM, first compound 1 µM
[35] = second compound 3.16 µM, first compound 3.16 µM
[36] = second compound 3.16 µM, first compound 10 µM
[37] = second compound 10 µM, first compound 0.0316 µM
[38] = second compound 10 µM, first compound 0.1 µM
[39] = second compound 10 µM, first compound 0.316 µM
[40] = second compound 10 µM, first compound 1 µM
[41] = second compound 10 µM, first compound 3.16 µM
[42] = second compound 10 µM, first compound 10 µM
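Also: spheroids exposed to agents for seven days before readout.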

CC(Nc1ccc2c(c1)OCCn1cc(N3C(=O)OCC3C(F)F)nc1-2)C(N)=O (configuration not stated) + CNC(=O)c1ccc(Nc2nc(OC3CCCC3)c3c(-c4ccc5nc(C)oc5c4)c[nH]c3n2)c(OC)c1
86 nM: IC50 [3]
inactive: viability, T/C [7] 80.2% | viability, T/C [8] 52.4% | viability, T/C [9] 42.6% | viability, T/C [10] 35.1% | viability, T/C [11] 30.1% | viability, T/C [12] 28.7% | viability, T/C [13] 83.7% | viability, T/C [14] 56.9% | viability, T/C [15] 43.8% | viability, T/C [16] 32.8% | viability, T/C [17] 25.6% | viability, T/C [18] 31.9% | viability, T/C [19] 56.3% | viability, T/C [20] 49.1% | viability, T/C [21] 37% | viability, T/C [22] 28.1% | viability, T/C [23] 29.2% | viability, T/C [24] 24.2% | viability, T/C [25] 56.2% | viability, T/C [26] 37.6% | viability, T/C [27] 37.7% | viability, T/C [28] 31% | viability, T/C [29] 26.2% | viability, T/C [30] 24.9% | viability, T/C [31] 50.2% | viability, T/C [32] 41.2% | viability, T/C [33] 37.5% | viability, T/C [34] 29.4% | viability, T/C [35] 28.8% | viability, T/C [36] 25.3% | viability, T/C [37] 58.9% | viability, T/C [38] 43% | viability, T/C [39] 36.7% | viability, T/C [40] 31.9% | viability, T/C [41] 33.1% | viability, T/C [42] 25.8%
175 nM: IC50 [2]
144 nM: IC50 [1]
62.6 nM: IC50 [6]
32 nM: IC50 [5]
48.5 nM: IC50 [4]

COc1cccc2c1C(=O)c1c(O)c3c(c(O)c1C2=O)CC(O)(C(=O)CO)CC3OC1CC(N)C(O)C(C)O1 (configuration not stated) + CN1CCN(c2cc(C(=O)Nc3cc4cc(-c5cnn(C)c5)ccc4cn3)ccn2)CC1
220 nM: IC50 [3]
active: viability, T/C [31] 8.41% | viability, T/C [32] 7.95% | viability, T/C [37] 1.49% | viability, T/C [38] 1.52% | viability, T/C [39] 2.85% | viability, T/C [40] 3.41% | viability, T/C [41] 10.8% | viability, T/C [42] 13.8%
< 31.6 nM: IC50 [4] | IC50 [5] | IC50 [6]
174 nM: IC50 [2]
inactive: viability, T/C [7] 73.1% | viability, T/C [8] 50.2% | viability, T/C [9] 40.9% | viability, T/C [10] 28.2% | viability, T/C [11] 31% | viability, T/C [12] 36% | viability, T/C [13] 74% | viability, T/C [14] 59.4% | viability, T/C [15] 38.5% | viability, T/C [16] 34.3% | viability, T/C [17] 39.9% | viability, T/C [18] 47.1% | viability, T/C [19] 73% | viability, T/C [20] 67.4% | viability, T/C [21] 42.1% | viability, T/C [22] 35.8% | viability, T/C [23] 30.7% | viability, T/C [24] 46.5% | viability, T/C [25] 19.8% | viability, T/C [26] 16.7% | viability, T/C [27] 15.3% | viability, T/C [28] 20.3% | viability, T/C [29] 38% | viability, T/C [30] 54.5% | viability, T/C [33] 11.9% | viability, T/C [34] 22.1% | viability, T/C [35] 33.8% | viability, T/C [36] 51%
109 nM: IC50 [1]

C=CC(=O)N1CCN(c2nc(=O)n(-c3c(C)ccnc3C(C)C)c3nc(-c4c(O)cccc4F)c(F)cc23)C(C)C1 (configuration not stated) + CNC(=O)c1ccc(Nc2nc(OC3CCCC3)c3c(-c4ccc5nc(C)oc5c4)c[nH]c3n2)c(OC)c1
inactive: viability, T/C [7] 36.8% | viability, T/C [8] 35.4% | viability, T/C [9] 29.5% | viability, T/C [10] 27.4% | viability, T/C [11] 23.5% | viability, T/C [12] 24.6% | viability, T/C [13] 34.6% | viability, T/C [14] 33.2% | viability, T/C [15] 27.6% | viability, T/C [16] 28.7% | viability, T/C [17] 26% | viability, T/C [18] 26.1% | viability, T/C [19] 34.9% | viability, T/C [20] 30.8% | viability, T/C [21] 27.1% | viability, T/C [22] 25.6% | viability, T/C [23] 24.8% | viability, T/C [24] 26.2% | viability, T/C [25] 35.7% | viability, T/C [26] 25.7% | viability, T/C [27] 28.8% | viability, T/C [28] 25.3% | viability, T/C [29] 31.9% | viability, T/C [30] 27.7% | viability, T/C [31] 32.3% | viability, T/C [32] 29.9% | viability, T/C [33] 28.3% | viability, T/C [34] 24.4% | viability, T/C [35] 27.6% | viability, T/C [36] 30.9% | viability, T/C [37] 32% | viability, T/C [38] 28.9% | viability, T/C [39] 27.8% | viability, T/C [40] 27.4% | viability, T/C [41] 29.9% | viability, T/C [42] 26.4%
< 31.6 nM: IC50 [1] | IC50 [2] | IC50 [3] | IC50 [4] | IC50 [5] | IC50 [6]

CNC(=O)c1ccc(Nc2nc(OC3CCCC3)c3c(-c4ccc5nc(C)oc5c4)c[nH]c3n2)c(OC)c1
> 10000 nM: IC50 (compound alone, run of 08/15/2023)
inactive: viability, T/C (compound 0.0316 µM) 99.4% [middle of 12 runs] | viability, T/C (compound 0.1 µM) 93.4% [middle of 12 runs] | viability, T/C (compound 0.316 µM) 70.8% [middle of 12 runs] | viability, T/C (compound 1 µM) 68.3% [middle of 12 runs] | viability, T/C (compound 3.16 µM) 74.5% [middle of 12 runs]
